Assay results as given in ChEMBL document CHEMBL4390701, “Discovery of 5-(5-fluoro-1H-pyrrolo[2,3-b]pyridin-3-yl)pyrazin-2(1H)-one derivatives as new potent PB2 inhibitors” (Bioorg Med Chem Lett, 2019).

Experiments:
[1] = Binding affinity to influenza virus PB2 transformed into Escherichia coli rosseta competent cells by surface plasmon resonance analysis; design: species or system unidentified influenza virus
[2] = tested on: Influenza A virus; experiment: Antiviral activity against Influenza A virus (A/PR/8/34 (H1N1)) infected in MDCK cells assessed as reduction in viral replication preincubated for 1 hr followed by compound washout and measured after 48 hrs; assay type: functional, organism-based, A/Puerto Rico/8/1934(H1N1)
[3] = Cytotoxicity against MDCK cells assessed as reduction in cell viability measured after 72 hrs by alamar blue assay; assay type: cell-based, Canis lupus familiaris; conditions: dog
[4] = Binding affinity to influenza virus PB2 transformed into Escherichia coli rosseta competent cells by isothermal titration calorimetry; design: species or system unidentified influenza virus
[5] = tested on: unidentified influenza virus; experiment: Binding affinity to influenza virus PB2 transformed into Escherichia coli rosseta competent cells assessed as binding constant by isothermal titration calorimetry
[6] = Influenza A virus, A/Puerto Rico/8/1934(H1N1), MDCK

| Structure (SMILES) | Kd [1] | also measured |
| --- | --- | --- |
| O=C(O)[C@H]1C2CCC(CC2)[C@@H]1Nc1nc(-c2c[nH]c3ncc(F)cc23)cn(Cc2cccc(C(F)(F)F)c2)c1=O | 2130 nM |  |
| NC(=O)c1ncn([C@@H]2O[C@H](CO)[C@@H](O)[C@H]2O)n1 [RIBAVIRIN] |  | EC50 [2]: 9120 nM; CC50 at 72 h [3]: > 100 µM |
| Cn1cc(-c2c[nH]c3ncc(F)cc23)nc(NC[C@H]2CCCO2)c1=O | 8270 nM |  |
| O=C(O)[C@H]1C2CCC(CC2)[C@@H]1Nc1nc(-c2c[nH]c3ncc(F)cc23)cn(C2CCCCC2)c1=O | 740 nM |  |
| O=C(O)[C@H]1C2CCC(CC2)[C@@H]1Nc1nc(-c2c[nH]c3ncc(F)cc23)cn(-c2ccccc2)c1=O | 1000 nM |  |
| O=C(O)[C@H]1C2CCC(CC2)[C@@H]1Nc1nc(-c2c[nH]c3ncc(F)cc23)cn(C2CCCC2)c1=O | 490 nM |  |
| O=C(O)[C@H]1C2CCC(CC2)[C@@H]1Nc1nc(-c2c[nH]c3ncc(F)cc23)cn(C2CCC2)c1=O | 470 nM |  |
| O=C(O)[C@H]1C2CCC(CC2)[C@@H]1Nc1nc(-c2c[nH]c3ncc(F)cc23)cn(-c2ccc(F)c(F)c2)c1=O | 5330 nM |  |
| O=C(O)[C@H]1C2CCC(CC2)[C@@H]1Nc1nc(-c2c[nH]c3ncc(F)cc23)cn(Cc2cccs2)c1=O | 1040 nM |  |
| O=C(O)[C@H]1C2CCC(CC2)[C@@H]1Nc1nc(-c2c[nH]c3ncc(F)cc23)ncc1F [PIMODIVIR] | 70 nM | EC50 [2, 6]: 2 nM; Kd [4]: 50 nM; CC50 at 72 h [3]: > 100 µM |
| C[C@H](Nc1nc(-c2c[nH]c3ncc(F)cc23)cn(C)c1=O)c1cccc(F)c1 | 25700 nM |  |
| Cn1cc(-c2c[nH]c3ncc(F)cc23)nc(NC23CC4CC(CC(O)(C4)C2)C3)c1=O | 2050 nM |  |
| CC[C@H](Nc1nc(-c2c[nH]c3ncc(F)cc23)cn(C)c1=O)c1ccccc1 | 10300 nM |  |
| O=C(O)[C@H]1C2CCC(CC2)[C@@H]1Nc1nc(-c2c[nH]c3ncc(F)cc23)cn(C2CC2)c1=O | 320 nM |  |
| O=C(O)[C@H]1C2CCC(CC2)[C@@H]1Nc1nc(-c2c[nH]c3ncc(F)cc23)cn(CC(F)(F)F)c1=O | 170 nM |  |
| CC1CCCCC1Nc1nc(-c2c[nH]c3ncc(F)cc23)cn(C)c1=O (stereo not given) | 5230 nM |  |

| Structure (SMILES) | Kd [1] | also measured |
| --- | --- | --- |
| Cn1cc(-c2c[nH]c3ncc(F)cc23)nc(NCCCN2CCOCC2)c1=O | > 50000 nM |  |
| Cn1cc(-c2c[nH]c3ncc(F)cc23)nc(N[C@H]2C3CCC(CC3)[C@@H]2C(=O)O)c1=O | 270 nM |  |
| CC(C1CC1)n1cc(-c2c[nH]c3ncc(F)cc23)nc(N[C@H]2C3CCC(CC3)[C@@H]2C(=O)O)c1=O (stereo not given in full) | 530 nM |  |
| CC(C)(C)C1CCC(n2cc(-c3c[nH]c4ncc(F)cc34)nc(N[C@H]3C4CCC(CC4)[C@@H]3C(=O)O)c2=O)CC1 (stereo not given in full) | 16300 nM |  |
| Cc1cc(C)cc(-n2cc(-c3c[nH]c4ncc(F)cc34)nc(N[C@H]3C4CCC(CC4)[C@@H]3C(=O)O)c2=O)c1 | 4900 nM |  |
| CCn1cc(-c2c[nH]c3ncc(F)cc23)nc(N[C@H]2C3CCC(CC3)[C@@H]2C(=O)O)c1=O | 110 nM | EC50 [2, 6]: 1020 nM; Kd [4]: 190 nM; CC50 at 72 h [3]: > 100 µM; K [5]: 5.19 ×10⁶ /M |
| COc1ccc(-n2cc(-c3c[nH]c4ncc(F)cc34)nc(N[C@H]3C4CCC(CC4)[C@@H]3C(=O)O)c2=O)cc1 | 3930 nM |  |
| O=C(O)[C@H]1C2CCC(CC2)[C@@H]1Nc1nc(-c2c[nH]c3ncc(F)cc23)cn(-c2ccc(C(F)(F)F)cc2)c1=O | 7150 nM |  |
| O=C(O)[C@H]1C2CCC(CC2)[C@@H]1Nc1nc(-c2c[nH]c3ncc(F)cc23)cn(CC(F)F)c1=O | 160 nM |  |
| Cn1cc(-c2c[nH]c3ncc(F)cc23)nc(NC[C@@H]2CCCO2)c1=O | 10200 nM |  |
| CCOc1ccc(-n2cc(-c3c[nH]c4ncc(F)cc34)nc(N[C@H]3C4CCC(CC4)[C@@H]3C(=O)O)c2=O)cc1 | 6230 nM |  |
| CC(C)C(CC(=O)O)Nc1nc(-c2c[nH]c3ncc(F)cc23)cn(C)c1=O (stereo not given) | 3470 nM |  |
| O=C(O)Cn1cc(-c2c[nH]c3ncc(F)cc23)nc(N[C@H]2C3CCC(CC3)[C@@H]2C(=O)O)c1=O | 500 nM |  |
| Cn1cc(-c2c[nH]c3ncc(F)cc23)nc(N[C@@H](Cc2ccccc2)C(N)=O)c1=O | 22300 nM |  |
| CCCn1cc(-c2c[nH]c3ncc(F)cc23)nc(N[C@H]2C3CCC(CC3)[C@@H]2C(=O)O)c1=O | 320 nM |  |
| Cn1cc(-c2c[nH]c3ncc(F)cc23)nc(NCCc2cccs2)c1=O | > 50000 nM |  |
